Values of other authors as cited in patent publication US7045166B2, “Sweetener compositions containing fractions of inulin” (priority 1998, dated 2006).

Key:
[1] = relative to sucrose (sugar)
[2] = artificial sweetener, general statement

SMILES | sweetness of an equivalent dose of sucrose [1] [times] | heat stability [2]
OC[C@H]1O[C@H](O[C@]2(CCl)O[C@H](CCl)[C@@H](O)[C@@H]2O)[C@H](O)[C@@H](O)[C@H]1Cl [Sucralose, sucralose] | 600 | heat stable
COC(=O)[C@H](Cc1ccccc1)NC(=O)[C@H](CC(=O)O)NCCC(C)(C)C [Neotane] | 8000 | –
